These results are taken from patent US10981911B2, “Imidazopyrrolopyridine as inhibitors of the JAK family of kinases” (Janssen Pharmaceutica NV, priority 2016, dated 2021).

Holding throughout (type): biochemical
The target in test [1] is JAK2-JH1JH2 (Homo sapiens (Human), UniProt O60674). Kind of test: Enzymatic inhibition assay (RapidFire HTMS), JAK2. The conditions noted are these: 30 μM ATP, 40 μM substrate. From the text:
(§1) LC/MS grade Water and Acetonitrile (ACN), were purchased from HoneyWell, Burdick & Jackson (Muskegon, Mich., USA). Dimethylsulfoxide 99.8% (DMSO) and Trifluoroacetic Acid 99.5% (TFA) were purchased from EMD Chemical (Gibbstown, N.J., USA). Adenosine triphosphate (ATP), 4-Morpholinepropanesulfonic acid (MOPS), Magnesium chloride (MgCl2), ethylenediaminetetraacetic acid (EDTA), dithiothreitol (DTT), formic acid >95% (FA) and Tween-20 were purchased from Sigma (St Louis, Mo., USA). 384-well polypropylene plates, Cat #781280 were purchased from Greiner (Monroe, N.C.), RapidFire™ cartridge A C4 Column (Agilent Technologies, Santa Clara, Calif.).
(§2) The HTMS experiments were performed in positive ionization mode on a RapidFire 300 instrument (Agilent Technologies, Santa Clara, Calif.), coupled with an ABSiex QTrap 4000 system with an Electrospray Ionization source (RF-MS) (Concord, ON, Canada). […] The entire system was operated using the RapidFire software interfaced with Analyst software for the mass spectrometer.
(§3) 11-point dosing series were made for each compound by serially diluting 1:3 or 1:4 in DMSO, with point 12 being a DMSO control. From the serial dilution plates, sample was transferred to a 384 wells assay plate (#781280, Greiner, Monroe, N.C.) using Labcyte Echo (Sunnyvale, Calif.), or Biosero ATS (San Diego, Calif.). The compounds were tested in duplicate. Column 12 was used for positive controls, and column 24 contained negative controls with no enzyme added. A compound from our internal collection, with inhibitory activity for JAK isoforms, was used as a reference compound. The final concentration of DMSO was ≤0.25% in a 20 μL reaction. […] The Tyk2 enzyme was pre-incubated with 2 mM ATP for 30 min prior to the reaction initiation. Immediately after the addition of the enzyme to the reaction mixture, the plate was centrifuged at 1000 rpm for 1 minute and incubated at 25° C. for 45 minutes for JAK 3 and 90 minutes for JAK1, JAK2 and Tyk2. The reaction was quenched by the addition of 20 μL of 0.5% TFA containing 0.15 μM of internal standard peptide using Multidrop Combi reagent dispenser (Thermo Scientific, Waltham, Mass.). […] After the quench, the assay plate was centrifuged at 3000 rpm for 3 minutes and sealed with pierceable aluminum foil (Cat #06644-001, Agilent) using a PlateLoc (Agilent Technologies, Santa Clara, Calif.). The plates then were transferred on to the RapidFire for the MS analysis. Compound inhibition was assessed by a decrease of the phosphorylated product levels in sample wells compared to the non-inhibited enzyme reaction.
(§4) The sample analysis on the RapidFire was performed using a mobile phase A consisting of Water/TFA/FA (100:0.01:0.1, v/v/v), a mobile phase B consisting of ACN/Water/TFA/FA (80:20:0.01:0.1, v/v/v). […] The samples were aspirated directly from the 384 assay plate and delivered onto RF-MS microscale solid-phase C4 extraction cartridge (Type A). The undesired component such as salt, cofactor, detergent and large protein were washed out and the retained analytes (substrate, product and IS) were coeluted directly onto the ABSiex Qtrap 4000 system.

Test [2] has as its target Tyk2-JH1JH2 (Homo sapiens (Human), UniProt P29597, C1142A/C936A). Briefly: Enzymatic inhibition assay (RapidFire HTMS), Tyk2. As to conditions: 50 μM ATP, 200 μM substrate.
Excerpt: as §1, §2, §3, §4

Test [3] addresses JAK1-JH1JH2 (Homo sapiens (Human), UniProt P23458). Kind of test: Enzymatic inhibition assay (RapidFire HTMS), JAK1. The conditions noted are these: 12.5 μM ATP, 200 μM substrate; read-out: JAK1-JH2JH1 IC50.
Excerpt: as §1, §2, §3, §4

Test [4] concerns the target JAK3-JH1JH2 (Homo sapiens (Human), UniProt P52333). Briefly: Enzymatic inhibition assay (RapidFire HTMS), JAK3. The conditions noted are these: 150 μM ATP, 40 μM substrate.
Excerpt: as §1, §2
as §3, with “compound.” for “compound. The final concentration of DMSO was ≤0.25% in a 20 μL reaction.”
as §4

Sequence of JAK2-JH1JH2 (O60674 532-1132): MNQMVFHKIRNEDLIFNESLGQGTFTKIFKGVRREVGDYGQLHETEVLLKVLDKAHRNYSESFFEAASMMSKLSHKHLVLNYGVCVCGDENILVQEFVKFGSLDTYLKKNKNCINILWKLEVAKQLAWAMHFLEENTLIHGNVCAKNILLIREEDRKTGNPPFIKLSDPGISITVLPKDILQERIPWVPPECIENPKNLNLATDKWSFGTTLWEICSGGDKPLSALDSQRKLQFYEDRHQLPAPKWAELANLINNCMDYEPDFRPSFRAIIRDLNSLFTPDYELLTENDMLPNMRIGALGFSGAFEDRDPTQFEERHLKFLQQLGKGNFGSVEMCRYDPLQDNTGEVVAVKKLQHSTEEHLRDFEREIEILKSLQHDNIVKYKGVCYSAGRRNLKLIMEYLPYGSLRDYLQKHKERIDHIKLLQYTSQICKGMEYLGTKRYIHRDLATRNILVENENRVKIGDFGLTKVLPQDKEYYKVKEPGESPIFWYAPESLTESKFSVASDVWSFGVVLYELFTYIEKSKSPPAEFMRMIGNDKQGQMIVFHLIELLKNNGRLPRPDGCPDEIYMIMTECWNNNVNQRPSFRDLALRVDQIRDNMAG
Sequence of Tyk2-JH1JH2 (P29597 580-1182 C936A/C1142A): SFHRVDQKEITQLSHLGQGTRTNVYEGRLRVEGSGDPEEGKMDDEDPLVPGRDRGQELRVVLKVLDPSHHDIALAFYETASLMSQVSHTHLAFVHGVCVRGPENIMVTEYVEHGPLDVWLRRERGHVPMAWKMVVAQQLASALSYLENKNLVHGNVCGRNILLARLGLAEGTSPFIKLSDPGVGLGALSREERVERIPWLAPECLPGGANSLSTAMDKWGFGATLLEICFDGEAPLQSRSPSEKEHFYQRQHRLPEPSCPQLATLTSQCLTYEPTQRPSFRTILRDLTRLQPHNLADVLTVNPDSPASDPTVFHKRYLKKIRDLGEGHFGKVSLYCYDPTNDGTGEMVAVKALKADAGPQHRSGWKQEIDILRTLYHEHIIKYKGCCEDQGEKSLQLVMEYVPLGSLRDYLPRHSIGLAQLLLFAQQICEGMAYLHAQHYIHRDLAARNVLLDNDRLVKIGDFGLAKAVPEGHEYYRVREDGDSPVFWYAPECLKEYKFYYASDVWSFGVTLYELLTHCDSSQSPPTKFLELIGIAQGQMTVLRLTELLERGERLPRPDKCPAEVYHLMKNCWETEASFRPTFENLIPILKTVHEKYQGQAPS
Sequence of JAK3-JH1JH2 (P52333 512-1124): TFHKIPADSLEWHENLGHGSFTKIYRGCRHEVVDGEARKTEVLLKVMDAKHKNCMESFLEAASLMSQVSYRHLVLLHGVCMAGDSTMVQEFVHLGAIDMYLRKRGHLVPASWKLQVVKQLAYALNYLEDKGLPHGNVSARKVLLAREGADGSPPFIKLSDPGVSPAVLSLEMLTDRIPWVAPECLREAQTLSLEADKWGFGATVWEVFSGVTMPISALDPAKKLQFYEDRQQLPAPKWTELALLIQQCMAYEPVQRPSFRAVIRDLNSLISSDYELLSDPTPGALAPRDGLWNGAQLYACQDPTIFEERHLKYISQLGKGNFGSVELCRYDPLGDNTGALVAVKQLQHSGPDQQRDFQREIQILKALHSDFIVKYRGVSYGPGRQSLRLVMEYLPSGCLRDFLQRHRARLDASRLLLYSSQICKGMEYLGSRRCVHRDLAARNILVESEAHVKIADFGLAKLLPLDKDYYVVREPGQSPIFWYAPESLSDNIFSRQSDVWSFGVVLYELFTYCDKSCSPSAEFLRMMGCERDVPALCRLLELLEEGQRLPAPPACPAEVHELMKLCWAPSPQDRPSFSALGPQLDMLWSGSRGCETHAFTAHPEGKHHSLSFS
Sequence of JAK1-JH1JH2 (P23458 574-1154): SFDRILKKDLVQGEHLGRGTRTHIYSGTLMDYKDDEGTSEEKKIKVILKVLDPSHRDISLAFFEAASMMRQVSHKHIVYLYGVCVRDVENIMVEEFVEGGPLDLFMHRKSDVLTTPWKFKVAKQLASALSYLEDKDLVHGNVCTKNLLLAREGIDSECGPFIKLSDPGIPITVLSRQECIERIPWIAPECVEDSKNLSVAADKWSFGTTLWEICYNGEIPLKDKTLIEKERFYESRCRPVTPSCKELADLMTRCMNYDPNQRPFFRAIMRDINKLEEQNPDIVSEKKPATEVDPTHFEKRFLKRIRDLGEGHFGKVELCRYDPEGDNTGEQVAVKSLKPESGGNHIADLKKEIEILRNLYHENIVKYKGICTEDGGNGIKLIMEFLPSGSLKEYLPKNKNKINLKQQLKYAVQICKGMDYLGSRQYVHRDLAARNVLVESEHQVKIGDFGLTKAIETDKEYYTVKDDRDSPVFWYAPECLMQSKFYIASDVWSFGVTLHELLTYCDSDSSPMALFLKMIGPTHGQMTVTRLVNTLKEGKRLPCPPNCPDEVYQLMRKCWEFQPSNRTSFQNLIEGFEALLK

Take `N#CC[C@H]1CC[C@H](n2c(CC(=O)Nc3ccc(CO)cc3)nc3cnc4[nH]ccc4c32)CC1` [Ex. 7, 2-(1-((1r,4r)-4-(Cyanomethyl)cyclohexyl)-1,6-dihydroimidazo[4,5-d]pyrrolo[2,3-b]pyridin-2-yl)-N-(4-(hydroxymethyl)phenyl)acetamide]: the IC50 in test [1] came out at 0.6 nM; in test [2], 0.9 nM; in test [3] it was 0.1 nM; in test [4] it was 13.3 nM.

Regarding `N#CCc1ccc(NC(=O)Cc2nc3cnc4[nH]ccc4c3n2[C@H]2CC[C@H](CC#N)CC2)cc1` [Ex. 8, 2-(1-((1r,4r)-4-(Cyanomethyl)cyclohexyl)-1,6-dihydroimidazo[4,5-d]pyrrolo[2,3-b]pyridin-2-yl)-N-(4-(cyanomethyl)phenyl)acetamide], the IC50 in test [1] is 0.5 nM; in test [2], 0.7 nM; in test [3], 0.1 nM; in test [4], 12.9 nM.

Take `N#CC[C@H]1CC[C@H](n2c(-c3nc[nH]n3)nc3cnc4[nH]ccc4c32)CC1` [Ex. 9, 2-((1r,4r)-4-(2-(1H-1,2,4-Triazol-3-yl)imidazo[4,5-d]pyrrolo[2,3-b]pyridin-1(6H)-yl)cyclohexyl)acetonitrile]: the IC50 in test [1] turned out to be 0.3 nM; in test [2], 1.6 nM; in test [3], 0.1 nM; in test [4] it was 48.9 nM.

`N#CC[C@H]1CC[C@H](n2c(CC(=O)N3CCC(O)CC3)nc3cnc4[nH]ccc4c32)CC1` [Ex. 12, 2-((1r,4r)-4-(2-(2-(4-Hydroxypiperidin-1-yl)-2-oxoethyl)imidazo[4,5-d]pyrrolo[2,3-b]pyridin-1(6H)-yl)cyclohexyl)acetonitrile]: the IC50 in test [1] was 9.2 nM; in test [2] it was 1.4 nM; in test [3], 0.1 nM; in test [4], 99.4 nM.

For the compound `N#CCCS(=O)(=O)NCc1nc2cnc3[nH]ccc3c2n1[C@H]1CC[C@H](CC#N)CC1` [Ex. 13, 2-Cyano-N-((1-((1r,4r)-4-(cyanomethyl)cyclohexyl)-1,6-dihydroimidazo[4,5-d]pyrrolo[2,3-b]pyridin-2-yl)methyl)ethanesulfonamide], the IC50 came to 7.1 nM in test [1], 3.3 nM in test [2], 0.1 nM in test [3] and 651 nM in test [4].

On to `N#CC[C@H]1CC[C@H](n2c(CC(=O)NCc3ccncn3)nc3cnc4[nH]ccc4c32)CC1` [Ex. 14, 2-(1-((1r,4r)-4-(Cyanomethyl)cyclohexyl)-1,6-dihydroimidazo[4,5-d]pyrrolo[2,3-b]pyridin-2-yl)-N-(pyrimidin-4-ylmethyl)acetamide], for which the IC50 in test [1] was found to be 1.8 nM; in test [2] it was 2.8 nM; in test [3] it was 0.1 nM; in test [4], 43.7 nM.

`[H]/N=C(\c1ccccc1)N(O)Cc1nc2cnc3[nH]ccc3c2n1[C@H]1CC[C@H](CC#N)CC1` [Ex. 17A, (E)-N-((1-((1r,4r)-4-(Cyanomethyl)cyclohexyl)-1,6-dihydroimidazo[4,5-d]pyrrolo[2,3-b]pyridin-2-yl)methyl)-N-hydroxybenzimidamide]: the IC50 turned out to be 1.2 nM in test [1], 1.4 nM in test [2], 0.1 nM in test [3] and 65.8 nM in test [4].

Turning to `[H]/N=C(/c1ccccc1)N(O)Cc1nc2cnc3[nH]ccc3c2n1[C@H]1CC[C@H](CC#N)CC1` [Ex. 17B, (Z)—N-((1-((1r,4r)-4-(Cyanomethyl)cyclohexyl)-1,6-dihydroimidazo[4,5-d]pyrrolo[23-b]pyridin-2-yl)methyl)-N-hydroxybenzimidamide], the IC50 in test [1] was 4.5 nM; in test [2], 2.9 nM; in test [3] it was 0.5 nM; in test [4], 102 nM.

In the case of `N#CC[C@H]1CC[C@H](n2c(C(=O)N3CCC(O)(c4ccccn4)CC3)nc3cnc4[nH]ccc4c32)CC1` [Ex. 88, 2-((1r,4r)-4-(2-(4-Hydroxy-4-(pyridin-2-yl)piperidine-1-carbonyl)imidazo[4,5-d]pyrrolo[2,3-b]pyridin-1(6H)-yl)cyclohexyl)acetonitrile], the IC50 stood at 43.4 nM in test [1], 49.5 nM in test [2] and 0.4 nM in test [3].

Take `CCOP(=O)(Cc1ccc(NC(=O)Cc2nc3cnc4[nH]ccc4c3n2[C@H]2CC[C@H](CC#N)CC2)cc1)OCC` [Ex. 108, Diethyl 4-(2-(1-((1r,4r)-4-(cyanomethyl)cyclohexyl)-1,6-dihydroimidazo[4,5-d]pyrrolo[2,3-b]pyridin-2-yl)acetamido)benzylphosphonate]: the IC50 is 3.8 nM in test [1], 7.1 nM in test [2] and 0.6 nM in test [3].

Regarding `C[Si](C)(C)[C@H]1CC[C@@H](NC(=O)Cc2nc3cnc4[nH]ccc4c3n2[C@H]2CC[C@H](CC#N)CC2)CC1` [Ex. 135, 2-(1-((1r,4r)-4-(Cyanomethyl)cyclohexyl)-1,6-dihydroimidazo[4,5-d]pyrrolo[2,3-b]pyridin-2-yl)-N-((1S,4S)-4-(trimethylsilyl)cyclohexyl)acetamide], the IC50 in test [1] amounted to 4 nM; in test [2] it was 8.7 nM; in test [3], 0.8 nM.

In the case of `N#CC[C@H]1CC[C@H](n2c(C(=O)NCC3(O)CCCCCC3)nc3cnc4[nH]ccc4c32)CC1` [Ex. 136, 1-((1r,4r)-4-(Cyanomethyl)cyclohexyl)-N-((1-hydroxycycloheptyl)methyl)-1,6-dihydroimidazo[4,5-d]pyrrolo[2,3-b]pyridine-2-carboxamide], the IC50 in test [2] was 19.1 nM; in test [3], 0.9 nM; in test [4] it was 65.9 nM.

Turning to `COCCNC(=O)c1nc2cnc3[nH]ccc3c2n1[C@H]1CC[C@H](CC#N)CC1` [Ex. 145, 1-((1r,4r)-4-(Cyanomethyl)cyclohexyl)-N-(2-methoxyethyl)-1,6-dihydroimidazo[4,5-d]pyrrolo[2,3-b]pyridine-2-carboxamide], the IC50 in test [2] was 19.4 nM; in test [3], 1.1 nM; in test [4] it was 175 nM.

With `CC(C)(C)COC(=O)NCc1nc2cnc3[nH]ccc3c2n1[C@H]1CC[C@H](CC#N)CC1` [Ex. 154, Neopentyl ((1-((1r,4r)-4-(Cyanomethyl)cyclohexyl)-1,6-dihydroimidazo[4,5-d]pyrrolo[2,3-b]pyridin-2-yl)methyl)carbamate], the IC50 in test [2] was 16.1 nM; in test [3], 1.2 nM; in test [4], 408 nM.

Take `C[Si](C)(C)[C@H]1CC[C@H](NC(=O)Cc2nc3cnc4[nH]ccc4c3n2[C@H]2CC[C@H](CC#N)CC2)CC1` [Ex. 167, 2-(1-((1r,4r)-4-(Cyanomethyl)cyclohexyl)-1,6-dihydroimidazo[4,5-d]pyrrolo[2,3-b]pyridin-2-yl)-N-((1r,4r)-4-(trimethylsilyl)cyclohexyl)acetamide]: the values for the IC50 in test [1], in test [2] and in test [3] were 20.8 nM, 25.5 nM and 1.9 nM, respectively.
